Measurements from ChEMBL document CHEMBL1151179, “Isolation of salicin derivatives from Homalium cochinchinensis and their antiviral activities” (J Nat Prod, 2004).
pEC50: −log10 of the molar value.

How the values were obtained:
Type in all cases: functional, organism-based
Human alphaherpesvirus 1 = experiment: Antiviral activity against HSV1
Human alphaherpesvirus 2 = experiment: Antiviral activity against HSV2
[1] = tested on: Human immunodeficiency virus 1; experiment: Antiviral activity against HIV1

Row | Compound | pEC50 (Human alphaherpesvirus 1) | pEC50 (Human alphaherpesvirus 2) | pEC50 [1]
1 | Nc1nc2c(ncn2COCCO)c(=O)[nH]1 [ACYCLOVIR] | 5.96 | 6.00 | –
2 | O=C(O[C@H]1[C@H](Oc2c(O)cccc2COC(=O)C2(O)C=CCCC2=O)O[C@H](CO)[C@@H](O)[C@@H]1O)c1ccccc1 (stereo partly specified) [COCHINCHISIDE B] | 4.12 | 4.12 | < 4.74
3 | O=C1OC2=C[C@@H](O)CCC2=C1C(O)c1ccccc1 (stereo partly specified) [COCHINOLIDE] | 4.51 | 4.07 | –
4 | O=c1[nH]cnc2c1ncn2[C@H]1CC[C@@H](CO)O1 [DIDANOSINE] | – | – | 5.68
5 | O=C(O[C@H]1[C@H](Oc2ccccc2COC(=O)[C@]2(O)C=CCC[C@@H]2O)O[C@H](CO)[C@@H](O)[C@@H]1O)c1ccccc1 [TREMULACINOL] | < 3.73 | < 3.73 | –
6 | O=C(O[C@H]1[C@H](Oc2ccccc2COC(=O)C2(O)C=CCCC2=O)O[C@H](CO)[C@@H](O)[C@@H]1O)c1ccccc1 (stereo partly specified) [TREMULACIN] | 4.06 | 4.07 | 4.28
7 | O=C(O[C@H]1[C@H](Oc2ccccc2CO)O[C@H](CO)[C@@H](O)[C@@H]1O)c1ccccc1 [TREMULDIN] | < 3.59 | < 3.59 | –
8 | Cc1cn([C@H]2C[C@H](N=[N+]=[N-])[C@@H](CO)O2)c(=O)[nH]c1=O [ZIDOVUDINE] | – | – | 7.70
